Test results reported in patent publication US20230157996A1, “SMALL-MOLECULE INHIBITOR TARGETING EB VIRUS NUCLEAR ANTIGEN PROTEIN, PREPARATION METHOD AND USE THEREOF” (priority 2020, published 2023).

system: C666-1 cells; experiment: C666-1 cell viability single concentration (50 μM) inhibition rate (Resazurin); type: cell-based; settings: Homo sapiens, C6661, 72 h, 50 μM compound, 72 hours, C666-1 cells; read-out: C666-1 cell viability single concentration (50 μM) inhibition rate, Ratio* (Inh %)
In short: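 EBV-positive C666-1 cells (5×10^3/well), pre-cultured 24 h, were exposed to compound at 50 μmol/L final for 72 h at 37° C, 5% CO2, in duplicate. Viability by resazurin (3 h, ex 560/em 590 nm); inhibition rate computed relative to DMSO control and medium-only blank.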

Row | SMILES | inhibition at 50 µM
1 | COC(=O)c1cccc(N2CC(NC(=O)c3ccccc3[N+](=O)[O-])C2)c1-n1cccc1 [Example 180, Methyl 3-(3-(2-nitrobenzamido)azetidin-1-yl)-2-(1H-pyrrol-1-yl)benzoate] | 30 to 50%
2 | O=C(NC1CN(c2cccc(C(=O)O)c2-n2cccc2)C1)c1ccccc1[N+](=O)[O-] [Example 181, 3-(3-(2-nitrobenzamido)azetidin-1-yl)-2-(1H-pyrrol-1-yl)benzoic acid] | < 10%
3 | COC(=O)c1cccc(N2CC(NS(=O)(=O)C3CC3)C2)c1-n1cccc1 [Example 182, Methyl 3-(3-(cyclopropylsulfonamido)azetidin-1-yl)-2-(1H-pyrrol-1-yl)benzoate] | 10 to 30%
4 | O=C(O)c1cccc(N2CC(NS(=O)(=O)C3CC3)C2)c1-n1cccc1 [Example 183, 3-(3-(cyclopropylsulfonamido)azetidin-1-yl)-2-(1H-pyrrol-1-yl)benzoic acid] | < 10%
5 | COC(=O)c1cccc(N2CC(N(Cc3ccccc3)S(=O)(=O)c3ccc(C)cc3)C2)c1-n1cccc1 [Example 184, Methyl 3-(3-((N-benzyl-4-methylphenyl)sulfonamido)azetidin-1-yl)-2-(1H-pyrrol-1-yl)benzoate] | < 10%
6 | Cc1ccc(S(=O)(=O)N(Cc2ccccc2)C2CN(c3cccc(C(=O)O)c3-n3cccc3)C2)cc1 [Example 185, 3-(3-((N-benzyl-4-methylphenyl)sulfonamido)azetidin-1-yl)-2-(1H-pyrrol-1-yl) benzoic acid] | < 10%
7 | O=C(O)c1cccc(-c2cn(-c3ccc(CO)cc3)nn2)c1-c1ccc2cc[nH]c2c1 [Example 186, 3-(1-(4-(hydroxymethyl)phenyl)-1H-1,2,3-triazol-4-yl)-2-(1H-indol-6-yl)benzoic acid] | < 10%
8 | COC(=O)c1cccc(N2CC(Oc3ccc(O)cc3)C2)c1-n1cccc1 [Example 187, Methyl 3-(3-(4-hydroxylphenoxy)azetidin-1-yl)-2-(1H-pyrrol-1-yl)benzoate] | < 10%
9 | O=C(O)c1cccc(N2CC(Oc3ccc(O)cc3)C2)c1-n1cccc1 [Example 188, 3-(3-(4-hydroxylphenoxy)azetidin-1-yl)-2-(1H-pyrrol-1-yl)benzoic acid] | < 10%
10 | COC(=O)c1cccc(N2CC(Sc3ccc(C)cc3)C2)c1-n1cccc1 [Example 190, Methyl 2-(1H-pyrrol-1-yl)-3-(3-(p-tolylthio)azetidin-1-yl)benzoate] | < 10%
11 | COC(=O)c1cccc(N2CC([S+]([O-])c3ccc(C)cc3)C2)c1-n1cccc1 (stereo not drawn) [Example 191, Methyl 2-(1H-pyrrol-1-yl)-3-(3-(p-tolylsulfinyl)azetidin-1-yl)benzoate] | 10 to 30%
12 | COC(=O)c1cccc(N2CC(S(=O)(=O)c3ccc(C)cc3)C2)c1-n1cccc1 [Example 192, Methyl 2-(1H-pyrrol-1-yl)-3-(3-(p-tolylsulfonyl)azetidin-1-yl)benzoate] | 10 to 30%
13 | Cc1ccc([S+]([O-])C2CN(c3cccc(C(=O)O)c3-n3cccc3)C2)cc1 (stereo not drawn) [Example 193] | < 10%
14 | COC(=O)c1cccc(N2CC(Oc3ccc(Oc4ccc(Cl)cc4)cc3)C2)c1-n1cccc1 [Example 194, Methyl 3-(3-(4-(4-chlorophenoxy)phenoxy)azetidin-1-yl)-2-(1H-pyrrol-1-yl)benzoate] | < 10%
15 | O=C(O)c1cccc(N2CC(Oc3ccc(Oc4ccc(Cl)cc4)cc3)C2)c1-n1cccc1 [Example 195, 3-(3-(4-(4-chlorophenoxy)phenoxy)azetidin-1-yl)-2-(1H-pyrrol-1-yl)benzoic acid] | 10 to 30%
16 | COC(=O)c1cccc(N2CC(Oc3ccc(Oc4cccc(OC)c4)cc3)C2)c1-n1cccc1 [Example 196, Methyl 3-(3-(4-(3-methoxyphenoxy)phenoxy)azetidin-1-yl)-2-(1H-pyrrol-1-yl)benzoate] | < 10%
17 | COC(=O)c1cccc(N2CC(Oc3ccc(Oc4ccccc4)c(Cl)c3)C2)c1-n1cccc1 [Example 198, Methyl 3-(3-(3-chloro-4-phenoxyphenoxy)azetidin-1-yl)-2-(1H-pyrrol-1-yl)benzoate] | < 10%
18 | O=C(O)c1cccc(N2CC(Oc3ccc(Oc4ccccc4)c(Cl)c3)C2)c1-n1cccc1 [Example 199, 3-(3-(3-chloro-4-phenoxyphenoxy)azetidin-1-yl)-2-(1H-pyrrol-1-yl)benzoic acid] | 30 to 50%
19 | COC(=O)c1cccc(N2CC(Oc3ccc(Oc4ccccc4)c(F)c3)C2)c1-n1cccc1 [Example 200, Methyl 3-(3-(3-fluoro-4-phenoxyphenoxy)azetidin-1-yl)-2-(1H-pyrrol-1-yl)benzoate] | < 10%
20 | O=C(O)c1cccc(N2CC(Oc3ccc(Oc4ccccc4)c(F)c3)C2)c1-n1cccc1 [Example 201, 3-(3-(3-fluoro-4-phenoxyphenoxy)azetidin-1-yl)-2-(1H-pyrrol-1-yl)benzoic acid] | 30 to 50%

Row | SMILES | inhibition at 50 µM
21 | COC(=O)c1cccc(N2CC(Oc3ccc(Oc4ccc(F)cc4)cc3)C2)c1-n1cccc1 [Example 202, Methyl 3-(3-(4-(4-fluorophenoxy)phenoxy)azetidin-1-yl)-2-(1H-pyrrol-1-yl)benzoate] | < 10%
22 | O=C(O)c1cccc(N2CC(Oc3ccc(Oc4ccc(F)cc4)cc3)C2)c1-n1cccc1 [Example 203, 3-(3-(4-(4-fluorophenoxy)phenoxy)azetidin-1-yl)-2-(1H-pyrrol-1-yl)benzoic acid] | 10 to 30%
23 | COC(=O)c1cccc(N2CC(Oc3cc(F)c(Oc4ccccc4)c(F)c3)C2)c1-n1cccc1 [Example 204, Methyl 3-(3-(3,5-difluoro-4-phenoxyphenoxy)azetidin-1-yl)-2-(1H-pyrrol-1-yl)benzoate] | < 10%
24 | O=C(O)c1cccc(N2CC(Oc3cc(F)c(Oc4ccccc4)c(F)c3)C2)c1-n1cccc1 [Example 205, 3-(3-(3,5-difluoro-4-phenoxyphenoxy)azetidin-1-yl)-2-(1H-pyrrol-1-yl)benzoic acid] | < 10%
25 | COC(=O)c1cccc(N2CC(Oc3ccc(Oc4ccc(C(C)=O)cc4)cc3)C2)c1-n1cccc1 [Example 206, Methyl 3-(3-(4-(4-acetylphenoxy)phenoxy)azetidin-1-yl)-2-(1H-pyrrol-1-yl)benzoate] | < 10%
26 | CC(=O)c1ccc(Oc2ccc(OC3CN(c4cccc(C(=O)O)c4-n4cccc4)C3)cc2)cc1 [Example 207, 3-(3-(4-(4-acetylphenoxy)phenoxy)azetidin-1-yl)-2-(1H-pyrrol-1-yl)benzoic acid] | 10 to 30%
27 | COC(=O)c1cccc(N2CC(Oc3ccc(Sc4ccccc4)cc3)C2)c1-n1cccc1 [Example 208, Methyl 3-(3-(4-(thiophenyl)phenoxy)azetidin-1-yl)-2-(1H-pyrrol-1-yl)benzoate] | < 10%
28 | O=C(O)c1cccc(N2CC(Oc3ccc(Sc4ccccc4)cc3)C2)c1-n1cccc1 [Example 209, 3-(3-(4-(thiophenyl)phenoxy)azetidin-1-yl)-2-(1H-pyrrol-1-yl)benzoic acid] | 10 to 30%
29 | COC(=O)c1cccc(N2CC(Oc3ccc(Oc4ccc(C#N)cc4)cc3)C2)c1-n1cccc1 [Example 210, Methyl 3-(3-(4-(4-cyanophenoxy)phenoxy)azetidin-1-yl)-2-(1H-pyrrol-1-yl)benzoate] | 10 to 30%
30 | N#Cc1ccc(Oc2ccc(OC3CN(c4cccc(C(=O)O)c4-n4cccc4)C3)cc2)cc1 [Example 211, 3-(3-(4-(4-cyanophenoxy)phenoxy)azetidin-1-yl)-2-(1H-pyrrol-1-yl)benzoic acid] | < 10%
31 | COC(=O)c1cccc(N2CC(Oc3ccc(Oc4ccc(S(C)(=O)=O)cc4)cc3)C2)c1-n1cccc1 [Example 212, Methyl 3-(3-(4-(4-(methylsulfonyl)phenoxy)phenoxy)azetidin-1-yl)-2-(1H-pyrrol-1-yl)benzoate] | 10 to 30%
32 | CS(=O)(=O)c1ccc(Oc2ccc(OC3CN(c4cccc(C(=O)O)c4-n4cccc4)C3)cc2)cc1 [Example 213, 3-(3-(4-(4-(methylsulfonyl)phenoxy)phenoxy)azetidin-1-yl)-2-(1H-pyrrol-1-yl)benzoic acid] | < 10%
33 | CCC(=O)c1ccc(OC2CN(c3cccc(C(=O)OC)c3-n3cccc3)C2)cc1 [Example 214, Methyl 3-(3-(4-propionylphenoxy)azetidin-1-yl)-2-(1H-pyrrol-1-yl)benzoate] | < 10%
34 | CCC(=O)c1ccc(OC2CN(c3cccc(C(=O)O)c3-n3cccc3)C2)cc1 [Example 215, 3-(3-(4-propionylphenoxy)azetidin-1-yl)-2-(1H-pyrrol-1-yl)benzoic acid] | < 10%
35 | COC(=O)c1cccc(N2CC(Oc3ccc(C(=O)C(C)C)cc3)C2)c1-n1cccc1 [Example 216, Methyl 3-(3-(4-isobutyrylphenoxy)azetidin-1-yl)-2-(1H-pyrrol-1-yl)benzoate] | < 10%
36 | CC(C)C(=O)c1ccc(OC2CN(c3cccc(C(=O)O)c3-n3cccc3)C2)cc1 [Example 217, 3-(3-(4-isobutyrylphenoxy)azetidin-1-yl)-2-(1H-pyrrol-1-yl)benzoic acid] | < 10%
37 | COCCOc1ccc(OC2CN(c3cccc(C(=O)OC)c3-n3cccc3)C2)cc1OC [Example 218, Methyl 3-(3-(3-methoxy-4-(2-methoxyethoxy)phenoxy)azetidin-1-yl)-2-(1H-pyrrol-1-yl)benzoate] | 10 to 30%
38 | COCCOc1ccc(OC2CN(c3cccc(C(=O)O)c3-n3cccc3)C2)cc1OC [Example 219, 3-(3-(3-methoxy-4-(2-methoxyethoxy)phenoxy)azetidin-1-yl)-2-(1H-pyrrol-1-yl)benzoic acid] | < 10%
39 | COC(=O)c1cccc(N2CC(Oc3ccc(OCCNC(C)=O)c(OC)c3)C2)c1-n1cccc1 [Example 220, Methyl 3-(3-(4-(2-acetylaminoethoxy)-3-methoxyphenoxy)azetidin-1-yl)-2-(1H-pyrrol-1-yl)benzoate] | 10 to 30%
